Reference: the CheMixHub viscosity set
Values joined by “and” are separate entries in the source; they are usually repeats but may differ in a detail not shown here. Equal entries are not always repeated.

Experiment: xn = mol fraction of the nth substance listed

C1CCCCC1 + CCO
Settings	viscosity [mPa·s]
293.15 K, 101.3 kPa, x1 = 0.0565	1.143
293.15 K, 101.3 kPa, x1 = 0.2674	1.028
293.15 K, 101.3 kPa, x1 = 0.3539	0.9953
293.15 K, 101.3 kPa, x1 = 0.4506	0.9698
293.15 K, 101.3 kPa, x1 = 0.5626	0.9436
293.15 K, 101.3 kPa, x1 = 0.6898	0.9184
293.15 K, 101.3 kPa, x1 = 0.8348	0.9099
298.15 K, 101 kPa, x2 = 0.0396	0.871
298.15 K, 101 kPa, x2 = 0.0718	0.867
298.15 K, 101 kPa, x2 = 0.1435	0.851
298.15 K, 101 kPa, x2 = 0.3225	0.839
298.15 K, 101 kPa, x2 = 0.4832	0.864
298.15 K, 101 kPa, x2 = 0.6269	0.901
298.15 K, 101 kPa, x2 = 0.7067	0.923
298.15 K, 101 kPa, x2 = 0.8205	0.967
298.15 K, 101.3 kPa, x1 = 0.0565	1.037
298.15 K, 101.3 kPa, x1 = 0.1188	0.9995
298.15 K, 101.3 kPa, x1 = 0.1894	0.9602
298.15 K, 101.3 kPa, x1 = 0.2674	0.9303
298.15 K, 101.3 kPa, x1 = 0.3539	0.9067
298.15 K, 101.3 kPa, x1 = 0.4506	0.8821
298.15 K, 101.3 kPa, x1 = 0.5626	0.8589
298.15 K, 101.3 kPa, x1 = 0.6898	0.8388
298.15 K, 101.3 kPa, x1 = 0.8348	0.8319
298.15 K, 101.33 kPa, x1 = 0.0999	1.003
298.15 K, 101.33 kPa, x1 = 0.1993	0.951
298.15 K, 101.33 kPa, x1 = 0.2995	0.923
298.15 K, 101.33 kPa, x1 = 0.3987	0.892
298.15 K, 101.33 kPa, x1 = 0.5003	0.872
298.15 K, 101.33 kPa, x1 = 0.55	0.861
298.15 K, 101.33 kPa, x1 = 0.6011	0.851
298.15 K, 101.33 kPa, x1 = 0.7014	0.831
298.15 K, 101.33 kPa, x1 = 0.803	0.826
298.15 K, 101.33 kPa, x1 = 0.9006	0.84
303.15 K, 101.3 kPa, x1 = 0.0565	0.947
303.15 K, 101.3 kPa, x1 = 0.1188	0.9133
303.15 K, 101.3 kPa, x1 = 0.1894	0.8784
303.15 K, 101.3 kPa, x1 = 0.2674	0.8522
303.15 K, 101.3 kPa, x1 = 0.3539	0.8288
303.15 K, 101.3 kPa, x1 = 0.4506	0.8084
303.15 K, 101.3 kPa, x1 = 0.5626	0.786
303.15 K, 101.3 kPa, x1 = 0.6898	0.7655
303.15 K, 101.3 kPa, x1 = 0.8348	0.7647
303.15 K, 101.33 kPa, x2 = 0.0952	0.7883
303.15 K, 101.33 kPa, x2 = 0.1976	0.7705
303.15 K, 101.33 kPa, x2 = 0.2988	0.7735
303.15 K, 101.33 kPa, x2 = 0.3894	0.7762
303.15 K, 101.33 kPa, x2 = 0.4879	0.7852
303.15 K, 101.33 kPa, x2 = 0.5929	0.8063
303.15 K, 101.33 kPa, x2 = 0.7828	0.8609
303.15 K, 101.33 kPa, x2 = 0.9018	0.921
308.15 K, 101 kPa, x2 = 0.0396	0.741
308.15 K, 101 kPa, x2 = 0.0718	0.729
308.15 K, 101 kPa, x2 = 0.1435	0.716
308.15 K, 101 kPa, x2 = 0.3225	0.707
308.15 K, 101 kPa, x2 = 0.4832	0.726
308.15 K, 101 kPa, x2 = 0.6269	0.752
308.15 K, 101 kPa, x2 = 0.7067	0.772
308.15 K, 101 kPa, x2 = 0.8205	0.807
308.15 K, 101 kPa, x2 = 0.8789	0.835
308.15 K, 101 kPa, x2 = 0.9548	0.875
308.15 K, 101.3 kPa, x1 = 0.0565	0.8683
308.15 K, 101.3 kPa, x1 = 0.1188	0.8383
308.15 K, 101.3 kPa, x1 = 0.1894	0.8039
308.15 K, 101.3 kPa, x1 = 0.2674	0.7793
308.15 K, 101.3 kPa, x1 = 0.3539	0.7578
308.15 K, 101.3 kPa, x1 = 0.4506	0.7384
308.15 K, 101.3 kPa, x1 = 0.5626	0.7191
308.15 K, 101.3 kPa, x1 = 0.6898	0.7052
308.15 K, 101.3 kPa, x1 = 0.8348	0.7051
318.15 K, 101 kPa, x2 = 0.0396	0.632
318.15 K, 101 kPa, x2 = 0.0718	0.627
318.15 K, 101 kPa, x2 = 0.1435	0.614
318.15 K, 101 kPa, x2 = 0.3225	0.601
318.15 K, 101 kPa, x2 = 0.4832	0.616
318.15 K, 101 kPa, x2 = 0.6269	0.634
318.15 K, 101 kPa, x2 = 0.7067	0.649
318.15 K, 101 kPa, x2 = 0.8205	0.68
318.15 K, 101 kPa, x2 = 0.8789	0.701
318.15 K, 101 kPa, x2 = 0.9548	0.736

CCCCOCC(C)O (centres undefined) + CCO
viscosity [mPa·s], 101.33 kPa
Settings	298.15 K	308.15 K	318.15 K
x1 = 0.05	1.229	1.013	0.846
x1 = 0.1	1.344	1.103	0.915
x1 = 0.15	1.462	1.193	0.982
x1 = 0.2	1.585	1.279	1.046
x1 = 0.25	1.705	1.363	1.108
x1 = 0.3	1.813	1.442	1.166
x1 = 0.35	1.918	1.516	1.22
x1 = 0.4	2.022	1.589	1.273
x1 = 0.45	2.12	1.656	1.321
x1 = 0.5	2.211	1.724	1.365
x1 = 0.55	2.305	1.779	1.409
x1 = 0.6	2.384	1.841	1.445
x1 = 0.65	2.469	1.891	1.49
x1 = 0.7	2.536	1.935	1.517
x1 = 0.7499	2.608	1.983	1.55
x1 = 0.7998	2.674	2.035	1.58
x1 = 0.85	2.737	2.067	1.609
x1 = 0.8998	2.788	2.099	1.633
x1 = 0.95	2.841	2.135	1.647

COC(C)=O + CCO
298.15 K, 101.33 kPa
Settings	viscosity [mPa·s]
x1 = 0.1146	0.833
x1 = 0.2045	0.695
x1 = 0.3207	0.574
x1 = 0.4245	0.506
x1 = 0.5004	0.467
x1 = 0.6077	0.438
x1 = 0.7989	0.399
x1 = 0.8802	0.39

COCCOC + CCO
298.15 K, 101 kPa
Settings	viscosity [mPa·s]
x1 = 0.05375	0.9565
x1 = 0.1133	0.8329
x1 = 0.1797	0.7369
x1 = 0.2542	0.663
x1 = 0.3383	0.5931
x1 = 0.434	0.5444
x1 = 0.544	0.4926
x1 = 0.8215	0.4356

COC(C)=O + CCOC(C)=O
viscosity, 101 kPa
Settings	298.15 K	313.15 K
x1 = 0.0544	0.432 mPa·s	0.372 mPa·s
x1 = 0.0916	0.429 mPa·s	0.37 mPa·s
x1 = 0.2242	0.418 mPa·s	0.361 mPa·s
x1 = 0.3041	0.412 mPa·s	0.357 mPa·s
x1 = 0.3995	0.405 mPa·s	0.351 mPa·s
x1 = 0.5024	0.399 mPa·s	0.346 mPa·s
x1 = 0.5482	0.396 mPa·s	0.344 mPa·s
x1 = 0.6054	0.392 mPa·s	0.341 mPa·s
x1 = 0.7024	0.387 mPa·s	0.337 mPa·s
x1 = 0.8025	0.381 mPa·s	0.333 mPa·s
x1 = 0.9028	0.377 mPa·s	0.33 mPa·s
x1 = 0.9548	0.376 mPa·s	0.33 mPa·s
x2 = 0.07815	0.3638 mPa·s	–
x2 = 0.189	0.3713 mPa·s	–
x2 = 0.3264	0.3801 mPa·s	–
x2 = 0.4453	0.3876 mPa·s	–
x2 = 0.5532	0.3943 mPa·s	–
x2 = 0.7914	0.4098 mPa·s and 0.4098 mPa·s	–
x2 = 0.8752	0.4158 mPa·s	–

COc1ccccc1N + CCOCCO
303.15 K, 101 kPa
Settings	viscosity [mPa·s]
x1 = 0.0875	2.2
x1 = 0.1775	2.547
x1 = 0.2701	2.908
x1 = 0.3653	3.268
x1 = 0.4633	3.603
x1 = 0.5643	3.917
x1 = 0.6683	4.18
x1 = 0.7755	4.436
x1 = 0.886	4.681

COC(C)=O + CN1CCCC1=O
viscosity [mPa·s], 101 kPa
Settings	x2 = 0.0845	x2 = 0.172	x2 = 0.2626	x2 = 0.3565	x2 = 0.4539	x2 = 0.5549	x2 = 0.6598	x2 = 0.7688	x2 = 0.8821
303.15 K	0.52	0.671	0.818	0.958	1.096	1.22	1.326	1.424	1.502
308.15 K	0.488	0.619	0.749	0.873	0.991	1.102	1.195	1.284	1.358
313.15 K	0.445	0.571	0.693	0.811	0.923	1.028	1.118	1.202	1.271
318.15 K	0.412	0.526	0.638	0.743	0.846	0.939	1.022	1.098	1.163
